Results reported in patent US3932492A, “Process for preparing new amidine compounds” (Kao Soap Co., Ltd., priority 1973, dated 1976).

Tested on: Wakin goldfish
Assay: Toxicity to fish, plant waste water test method (JIS-K-0102-1964)
Format: in vivo
Method: The test was carried out according to plant waste water test method (JIS-K-0102-1964). Wakin goldfish was used as the subject.
*A concentration at which half the number of the subjects died within 48
hours. The higher the number of ppm., the lower the toxicity to fish.

**Q.** With Benzalkonium chloride as the substance, how does the “TLM (concentration at which half the number of the subjects died within 48 hours)” value read?
**A.** Its value is 0.87 ppm.
